What was measured:
[1] = biological target: T1, Adrenergic receptor alpha-2 (Rattus norvegicus, UniProt P22086+P19328+P22909); assay: Binding affinity by its ability to displace [3H]rauwolscine radioligand from Alpha-2 adrenergic receptor on rat cerebral cortex; format: tissue-based
T1 sequence (P22086 whole entry): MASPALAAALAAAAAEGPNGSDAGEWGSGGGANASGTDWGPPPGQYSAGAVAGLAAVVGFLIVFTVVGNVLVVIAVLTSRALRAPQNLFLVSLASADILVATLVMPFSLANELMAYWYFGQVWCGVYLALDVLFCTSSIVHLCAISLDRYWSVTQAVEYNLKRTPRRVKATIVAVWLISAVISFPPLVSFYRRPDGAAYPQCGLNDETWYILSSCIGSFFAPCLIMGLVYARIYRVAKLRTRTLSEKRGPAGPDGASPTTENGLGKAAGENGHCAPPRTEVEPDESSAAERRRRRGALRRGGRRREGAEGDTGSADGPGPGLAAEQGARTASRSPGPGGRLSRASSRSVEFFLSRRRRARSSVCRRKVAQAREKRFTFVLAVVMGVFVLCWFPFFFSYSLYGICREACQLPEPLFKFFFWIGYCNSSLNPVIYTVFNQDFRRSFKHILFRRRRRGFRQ
T1 sequence (P19328 whole entry): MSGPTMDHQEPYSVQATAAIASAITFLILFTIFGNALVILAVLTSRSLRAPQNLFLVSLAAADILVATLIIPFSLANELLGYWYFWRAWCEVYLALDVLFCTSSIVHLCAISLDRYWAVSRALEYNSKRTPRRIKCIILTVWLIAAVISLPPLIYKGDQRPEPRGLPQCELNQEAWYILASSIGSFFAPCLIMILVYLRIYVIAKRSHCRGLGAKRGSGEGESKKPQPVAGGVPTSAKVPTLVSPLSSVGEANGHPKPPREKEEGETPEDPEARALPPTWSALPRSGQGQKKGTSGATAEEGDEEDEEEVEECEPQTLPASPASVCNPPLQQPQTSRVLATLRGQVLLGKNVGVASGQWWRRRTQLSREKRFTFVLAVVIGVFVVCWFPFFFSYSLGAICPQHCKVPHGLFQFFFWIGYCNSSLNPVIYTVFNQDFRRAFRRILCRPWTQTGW
T1 sequence (P22909 whole entry): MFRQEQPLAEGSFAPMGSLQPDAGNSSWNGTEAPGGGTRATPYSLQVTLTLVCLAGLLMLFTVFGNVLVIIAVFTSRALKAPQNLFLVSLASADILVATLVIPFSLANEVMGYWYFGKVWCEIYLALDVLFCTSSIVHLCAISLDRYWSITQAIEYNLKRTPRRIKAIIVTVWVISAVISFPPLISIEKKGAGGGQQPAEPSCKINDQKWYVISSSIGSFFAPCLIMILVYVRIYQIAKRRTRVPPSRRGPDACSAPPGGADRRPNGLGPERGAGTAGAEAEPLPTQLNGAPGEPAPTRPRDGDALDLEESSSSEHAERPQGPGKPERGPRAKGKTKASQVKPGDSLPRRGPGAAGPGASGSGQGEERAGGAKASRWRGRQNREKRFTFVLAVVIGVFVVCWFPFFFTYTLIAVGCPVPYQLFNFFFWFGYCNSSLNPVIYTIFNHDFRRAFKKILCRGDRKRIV

[2] = biological target: T2, Adrenergic receptor alpha-1 (Rattus norvegicus, UniProt P15823+P23944+P43140); assay: Binding affinity by its ability to displace [3H]prazosin radioligand from Alpha-1 adrenergic receptor on rat cerebral cortex; format: tissue-based
T2 sequence (P15823 whole entry): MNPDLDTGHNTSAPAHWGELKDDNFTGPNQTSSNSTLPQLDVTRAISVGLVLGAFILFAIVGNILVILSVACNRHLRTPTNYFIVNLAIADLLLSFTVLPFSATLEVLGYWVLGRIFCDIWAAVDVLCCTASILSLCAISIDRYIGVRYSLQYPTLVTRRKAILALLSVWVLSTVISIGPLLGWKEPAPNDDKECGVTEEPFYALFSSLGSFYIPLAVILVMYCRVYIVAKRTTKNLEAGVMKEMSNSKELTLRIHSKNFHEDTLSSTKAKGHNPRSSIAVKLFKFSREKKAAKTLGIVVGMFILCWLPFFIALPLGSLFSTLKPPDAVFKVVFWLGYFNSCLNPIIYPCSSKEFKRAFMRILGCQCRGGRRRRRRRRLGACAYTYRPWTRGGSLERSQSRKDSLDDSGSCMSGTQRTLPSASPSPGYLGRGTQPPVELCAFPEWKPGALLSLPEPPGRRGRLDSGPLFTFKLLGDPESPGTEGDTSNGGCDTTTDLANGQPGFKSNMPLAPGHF
T2 sequence (P23944 whole entry): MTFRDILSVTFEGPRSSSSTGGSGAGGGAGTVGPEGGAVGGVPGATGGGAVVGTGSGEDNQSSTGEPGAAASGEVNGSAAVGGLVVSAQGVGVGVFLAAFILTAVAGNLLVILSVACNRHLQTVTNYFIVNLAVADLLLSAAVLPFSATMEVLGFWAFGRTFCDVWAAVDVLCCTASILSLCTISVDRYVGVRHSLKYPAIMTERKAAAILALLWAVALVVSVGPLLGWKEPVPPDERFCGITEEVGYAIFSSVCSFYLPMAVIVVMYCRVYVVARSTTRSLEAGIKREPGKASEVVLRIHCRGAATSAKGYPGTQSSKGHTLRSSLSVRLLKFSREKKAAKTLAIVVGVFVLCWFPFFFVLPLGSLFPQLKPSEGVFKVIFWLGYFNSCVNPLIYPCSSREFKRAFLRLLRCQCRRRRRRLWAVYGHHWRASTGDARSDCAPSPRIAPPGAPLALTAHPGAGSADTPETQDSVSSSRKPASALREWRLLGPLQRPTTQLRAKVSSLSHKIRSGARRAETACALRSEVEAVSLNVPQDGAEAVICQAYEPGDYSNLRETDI
T2 sequence (P43140 whole entry): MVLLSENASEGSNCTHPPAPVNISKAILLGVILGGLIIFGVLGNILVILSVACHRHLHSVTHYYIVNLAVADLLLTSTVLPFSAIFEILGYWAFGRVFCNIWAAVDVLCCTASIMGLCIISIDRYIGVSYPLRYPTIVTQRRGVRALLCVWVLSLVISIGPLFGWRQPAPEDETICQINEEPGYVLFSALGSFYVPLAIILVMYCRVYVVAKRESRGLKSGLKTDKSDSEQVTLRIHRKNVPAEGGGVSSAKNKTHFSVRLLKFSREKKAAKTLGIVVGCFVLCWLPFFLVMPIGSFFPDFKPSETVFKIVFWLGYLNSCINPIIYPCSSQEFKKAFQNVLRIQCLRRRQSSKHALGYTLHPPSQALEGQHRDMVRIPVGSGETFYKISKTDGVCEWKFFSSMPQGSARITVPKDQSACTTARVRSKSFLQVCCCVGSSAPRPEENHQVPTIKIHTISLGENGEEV

Row | Ki [1] [nM] | Ki [2] [nM] | Structure (SMILES)
1 | 16 | 1.1 | COc1ccccc1N1CCN(CCCCn2nc(-n3cnc4ccccc43)ccc2=O)CC1
2 | 673.4 | 115.4 | COc1ccccc1N1CCN(CCCn2nc(-n3ccnc3)ccc2=O)CC1
3 | 436.6 | 48.3 | O=c1ccc(-n2ccnc2)nn1CCCN1CCN(c2ccccc2Cl)CC1
4 | 158.3 | 6.5 | COc1ccccc1N1CCN(CCCn2nc(-n3cnc4ccccc43)ccc2=O)CC1
5 | 44.7 | 15.2 | O=c1ccc(-n2cnc3ccccc32)nn1CCCN1CCN(c2ccccc2Cl)CC1

From ChEMBL document CHEMBL1135045, “alpha(1)-Adrenoceptor antagonists. Rational design, synthesis and biological evaluation of new trazodone-like compounds” (Bioorg Med Chem Lett, 2002)
